Laboratory results: patent US11654195B2, “Eco-friendly smart photosensitizer and photo-stem cell therapy product comprising same” (priority 2019, dated 2023)

System: HeLa cells
Assay: Confirmation of location of nanosphere in cells (confocal microscope)
Assay type: cell-based
Settings: HeLa cells 1×10^5, 1.25 μg/ml
Procedure: In order to observe cancer cell targeting of nanospheres of the biocompatible material sample in which the hydroxypropyl methylcellulose of Example 1 was bonded to porfimer sodium by an ester bond, that is, the accumulation location and accumulation rate in cancer cells, HeLa cells (1×10^5 cells) were treated with each of 1.25 μg/ml of the nanospheres of the biocompatible material sample in which the hydroxypropyl methylcellulose prepared in Example 1 was bonded to porfimer sodium by an ester bond and 1.25 μg/ml of unmodified porfimer sodium as a control and then the location in cells over time was observed using a confocal microscope.

“porfimer sodium [unmodified porfimer sodium]” was tested, and the “location in cells over time” value was “located at different sites in cells”.
